The values below come from patent US7932262B2 (Novartis AG, priority 2006, dated 2011).

One experiment relates to PC3MM cells. Description: Cell Proliferation Assay (Cell Titer Glo), PC3MM. The conditions noted are these: cell proliferation, PC3MM cells; read-out: CPEC50 PC3MM. It is filed as cell-based. In a few lines: (§1)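 Cells seeded at 1000/well, allowed to adhere 3-5 h, then exposed to DMSO-dissolved compounds for 3 days at 37° C., 5% CO2. Medium replaced before Cell Titer Glo addition; luminescence read after 10 min.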
For orientation: ATP-based viability assays read luminescence as a measure of living cells.

A further experiment concerns the target T1, PDK1 kinase (Homo sapiens, UniProt O15530).
T1 sequence (O15530 1-556): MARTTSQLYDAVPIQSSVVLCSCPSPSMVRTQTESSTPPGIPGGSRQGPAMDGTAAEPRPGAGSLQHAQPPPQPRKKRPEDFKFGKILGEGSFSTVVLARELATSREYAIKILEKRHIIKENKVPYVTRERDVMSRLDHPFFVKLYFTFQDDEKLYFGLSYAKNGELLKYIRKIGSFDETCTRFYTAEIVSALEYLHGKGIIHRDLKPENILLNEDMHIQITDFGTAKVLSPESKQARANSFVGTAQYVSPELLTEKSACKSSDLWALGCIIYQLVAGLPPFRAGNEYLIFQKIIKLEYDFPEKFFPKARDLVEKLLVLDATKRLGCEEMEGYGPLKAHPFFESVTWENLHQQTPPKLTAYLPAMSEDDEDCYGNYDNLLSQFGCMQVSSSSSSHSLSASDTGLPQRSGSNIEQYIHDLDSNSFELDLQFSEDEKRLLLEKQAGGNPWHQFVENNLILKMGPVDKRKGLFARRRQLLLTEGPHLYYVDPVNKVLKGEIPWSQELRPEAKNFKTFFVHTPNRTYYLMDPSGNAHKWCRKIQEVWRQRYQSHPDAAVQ
Description: PDK1 Kinase Alpha Screen Assay. It is filed as biochemical. As to conditions: PDK1 Kinase Alpha Screen Assay; read-out: PDK1 IC50. Summed up: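 Test compounds were incubated with PDK1 kinase, 10 uM ATP and 50 nM biotinylated peptide substrate for 3-18 hours at pH 7.5 with 2.5% DMSO. Peptide phosphorylation was then detected by AlphaScreen proximity luminescence using a phospho-(Ser/Thr) PKA substrate antibody.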

Another experiment concerns A2780 cells. Description: Cell Proliferation Assay (Cell Titer Glo), A2780. Type of experiment: cell-based. The conditions noted are these: Homo sapiens; cell proliferation, A2780 cells; read-out: CPEC50 A2780. In a few lines:
as §1

In general, IC50 refers to the concentration that gives 50% inhibition. As for `CCN1CCC(Oc2cccc3cnc(Nc4ccc(S(N)(=O)=O)cc4)nc23)CC1` [Compound 817, 4-(8-(1-ethylpiperidin-4-yloxy)quinazolin-2-ylamino)benzenesulfonamide], the EC50 in the experiment with PC3MM cells and in the experiment on A2780 cells was below 5 µM in each case. Besides, the IC50 on PDK1 kinase is below 5 µM.
Take `CC(C)N1CC(Oc2cccc3cnc(Nc4ccc(S(N)(=O)=O)cc4)nc23)C1` [Compound 818, 4-(8-(1-isopropylazetidin-3-yloxy)quinazolin-2-ylamino)benzenesulfonamide]: the EC50 in the experiment on PC3MM cells and in the experiment with A2780 cells was below 5 µM each time. For the same molecule, at PDK1 kinase, the IC50 is below 5 µM.
Turning to `NS(=O)(=O)c1ccc(Nc2ncc3cccc(OC4CNC4)c3n2)cc1` [Compound 819, 4-(8-(azetidin-3-yloxy)quinazolin-2-ylamino)benzenesulfonamide], the figures for the EC50 in the experiment on PC3MM cells and in the experiment on A2780 cells were below 5 µM and 5 to 10 µM, respectively. Also, the concentration for half-maximal inhibition (IC50) on PDK1 kinase was below 5 µM.
For the molecule `NS(=O)(=O)c1ccc(Nc2ncc3ccc(C(=O)N4CCCC4)cc3n2)cc1` [Compound 820, 4-(7-(pyrrolidine-1-carbonyl)quinazolin-2-ylamino)benzenesulfonamide], the EC50 with PC3MM cells and in the experiment with A2780 cells was below 5 µM in each case. For the same molecule, the IC50 on PDK1 kinase is below 5 µM.
Regarding `Nc1ccc(-c2cccc3cnc(Nc4ccc(S(N)(=O)=O)cc4)nc23)cn1` [Compound 821, 4-(8-(6-aminopyridin-3-yl)quinazolin-2-ylamino)benzenesulfonamide], the EC50 in the experiment on PC3MM cells and with A2780 cells was below 5 µM throughout. The IC50 on PDK1 kinase is below 5 µM.
For the molecule `CN1CCN(C(=O)c2cccc(-c3cccc4cnc(Nc5ccc(S(N)(=O)=O)cc5)nc34)c2)CC1` [Compound 822, 4-(8-(3-(4-methylpiperazine-1-carbonyl)phenyl)quinazolin-2-ylamino)benzenesulfonamide], the EC50 in the experiment with PC3MM cells and in the experiment on A2780 cells was below 5 µM in each case. On PDK1 kinase, the IC50 is below 5 µM.
Take `Nc1ncc(-c2cccc3cnc(Nc4ccc(S(N)(=O)=O)cc4)nc23)cn1` [Compound 823, 4-(8-(2-aminopyrimidin-5-yl)quinazolin-2-ylamino)benzenesulfonamide]: the EC50 in the experiment on PC3MM cells and with A2780 cells was below 5 µM throughout. Besides, the IC50 at PDK1 kinase is below 5 µM.
For `CN1CCN(C(=O)c2ccc(-c3cccc4cnc(Nc5ccc(S(N)(=O)=O)cc5)nc34)cc2)CC1` [Compound 824, 4-(8-(4-(4-methylpiperazine-1-carbonyl)phenyl)quinazolin-2-ylamino)benzenesulfonamide], the EC50 in the experiment with PC3MM cells and in the experiment with A2780 cells was below 5 µM in each case. For the same molecule, the IC50 on PDK1 kinase is below 5 µM.
Take `NS(=O)(=O)c1ccc(Nc2ncc3cccc(-c4ccc(N5CCOCC5)nc4)c3n2)cc1` [Compound 826, 4-(8-(6-morpholinopyridin-3-yl)quinazolin-2-ylamino)benzenesulfonamide]: the EC50 with PC3MM cells and in the experiment on A2780 cells was below 5 µM throughout. The IC50 on PDK1 kinase is below 5 µM.
With `NS(=O)(=O)c1ccc(Nc2ncc3cccc(-c4ccc(N5CCNC(=O)C5)nc4)c3n2)cc1` [Compound 828, 4-(8-(6-(3-oxopiperazin-1-yl)pyridin-3-yl)quinazolin-2-ylamino)benzenesulfonamide], the EC50 in the experiment on PC3MM cells and with A2780 cells was below 5 µM throughout. The IC50 at PDK1 kinase is below 5 µM.
Take `CC(=O)NCCNc1ccc(-c2cccc3cnc(Nc4ccc(S(N)(=O)=O)cc4)nc23)cn1` [Compound 829, N-(2-(5-(2-(4-sulfamoylphenylamino)quinazolin-8-yl)pyridin-2-ylamino)ethyl)acetamide]: the EC50 in the experiment on PC3MM cells and in the experiment with A2780 cells was below 5 µM throughout. Further, the IC50 on PDK1 kinase is below 5 µM.
Take `CC(C)Nc1ccc(-c2cccc3cnc(Nc4ccc(S(N)(=O)=O)cc4)nc23)cn1` [Compound 831, 4-(8-(6-(isopropylamino)pyridin-3-yl)quinazolin-2-ylamino)benzenesulfonamide]: the EC50 in the experiment with PC3MM cells and in the experiment with A2780 cells was below 5 µM in each case. Further, the IC50 on PDK1 kinase is below 5 µM.
In the case of `NS(=O)(=O)c1ccc(Nc2ncc3cccc(-c4ccc(N5CCCC5)nc4)c3n2)cc1` [Compound 832, 4-(8-(6-(pyrrolidin-1-yl)pyridin-3-yl)quinazolin-2-ylamino)benzenesulfonamide], the EC50 in the experiment with PC3MM cells and with A2780 cells was below 5 µM in each case. Moreover, the IC50 at PDK1 kinase was below 5 µM.
With `NS(=O)(=O)c1ccc(Nc2ncc3cccc(-c4cc[nH]c(=O)c4)c3n2)cc1` [Compound 833, 4-(8-(2-oxo-1,2-dihydropyridin-4-yl)quinazolin-2-ylamino)benzenesulfonamide], the EC50 is below 5 µM with PC3MM cells and 5 to 10 µM in the experiment on A2780 cells. For the same molecule, the IC50 at PDK1 kinase was below 5 µM.
Take `NS(=O)(=O)c1ccc(Nc2ncc3cccc(-c4ccc(N5CCS(=O)(=O)CC5)nc4)c3n2)cc1` [Compound 834]: the EC50 in the experiment on PC3MM cells and in the experiment on A2780 cells was below 5 µM each time. Also, the IC50 on PDK1 kinase is below 5 µM.
For `CC(C)CN1CC(Oc2cccc3cnc(Nc4ccc(S(N)(=O)=O)cc4)nc23)C1` [Compound 835, 4-(8-(1-isobutylazetidin-3-yloxy)quinazolin-2-ylamino)benzenesulfonamide], the EC50 in the experiment on PC3MM cells and in the experiment on A2780 cells was below 5 µM each time. Besides, the IC50 at PDK1 kinase was below 5 µM.
In the case of `NS(=O)(=O)c1ccc(Nc2ncc3ccc(-c4ccc(F)nc4F)cc3n2)cc1` [Compound 836, 4-(7-(2,6-difluoropyridin-3-yl)quinazolin-2-ylamino)benzenesulfonamide], the EC50 with PC3MM cells and in the experiment with A2780 cells was below 5 µM throughout. Further, the IC50 at PDK1 kinase is below 5 µM.
For `NS(=O)(=O)c1ccc(Nc2ncc3ccc(-c4ccc(F)nc4)cc3n2)cc1` [Compound 837, 4-(7-(6-fluoropyridin-3-yl)quinazolin-2-ylamino)benzenesulfonamide], the EC50 with PC3MM cells and in the experiment on A2780 cells was below 5 µM in each case. In addition, at PDK1 kinase, the IC50 is below 5 µM.
As for `Cc1ccc(Cl)cc1NC(=O)c1ccc2cnc(Nc3ccc(S(N)(=O)=O)cc3)nc2c1` [Compound 838, N-(5-chloro-2-metlhylphenyl)-2-(4-sulfamoylphenylamino)quinazoline-7-carboxamide], the EC50 in the experiment on PC3MM cells and in the experiment on A2780 cells was below 5 µM throughout. On PDK1 kinase, the IC50 was below 5 µM.
In the case of `Cc1csc(NC(=O)c2ccc3cnc(Nc4ccc(S(N)(=O)=O)cc4)nc3c2)c1C(N)=O` [Compound 839, N-(3-carbamoyl-4-methylthiophen-2-yl)-2-(4-sulfamoylphenylamino)quinazoline-7-carboxamide], the EC50 in the experiment with PC3MM cells and with A2780 cells was below 5 µM in each case. Also, the IC50 on PDK1 kinase was below 5 µM.
In the case of `NS(=O)(=O)c1ccc(Nc2ncc3ccc(-c4ccc5c(c4)CCNC5=O)cc3n2)cc1` [Compound 840, 4-(7-(1-oxo-1,2,3,4-tetrahydroisoquinolin-6-yl)quinazolin-2-ylamino)benzenesulfonamide], the EC50 in the experiment on PC3MM cells is below 5 µM; in the experiment with A2780 cells, 5 to 10 µM. In addition, on PDK1 kinase, the IC50 is below 5 µM.
Take `CCN1CC(Oc2cccc3cnc(Nc4ccc(S(N)(=O)=O)cc4)nc23)C1` [Compound 841, 4-(8-(1-ethylazetidin-3-yloxy)quinazolin-2-ylamino)benzenesulfonamide]: the EC50 in the experiment on PC3MM cells and in the experiment with A2780 cells was below 5 µM each time. For the same molecule, at PDK1 kinase, the IC50 is below 5 µM.
In the case of `Cc1ccc(C(N)=O)c(NC(=O)c2ccc3cnc(Nc4ccc(S(N)(=O)=O)cc4)nc3c2)c1` [Compound 842, N-(2-carbamoyl-5-methylphenyl)-2-(4-sulfamoylphenylamino)quinazoline-7-carboxamide], the EC50 with PC3MM cells is below 5 µM; with A2780 cells it was 5 to 10 µM. Also, the half-maximal inhibitory concentration (IC50) on PDK1 kinase was below 5 µM.
Take `NS(=O)(=O)c1ccc(Nc2ncc3ccc(-c4cnc(=O)[nH]c4)cc3n2)cc1` [Compound 844, 4-(7-(2-oxo-1,2-dihydropyrimidin-5-yl)quinazolin-2-ylamino)benzenesulfonamide]: the EC50 in the experiment with PC3MM cells was below 5 µM; in the experiment on A2780 cells, 5 to 10 µM. Further, the IC50 at PDK1 kinase is below 5 µM.
As for `NS(=O)(=O)c1ccc(Nc2ncc3ccc(Br)c(OC4CCNCC4)c3n2)cc1` [Compound 845, 4-(7-bromo-8-(piperidin-4-yloxy)quinazolin-2-ylamino)benzenesulfonamide], the EC50 in the experiment with PC3MM cells and in the experiment with A2780 cells was below 5 µM in each case. Besides, the IC50 on PDK1 kinase was below 5 µM.
On to `Cc1nn(C)c(C)c1-c1ccc2cnc(Nc3ccc(S(N)(=O)=O)cc3)nc2c1` [Compound 848, 4-(7-(1,3,5-trimethyl-1H-pyrazol-4-yl)quinazolin-2-ylamino)benzenesulfonamide], for which the EC50 in the experiment with PC3MM cells and in the experiment on A2780 cells was below 5 µM each time. Further, the IC50 on PDK1 kinase was below 5 µM.
